Measured values from ChEMBL document CHEMBL3352650, “Investigation of podophyllotoxin esters as potential anticancer agents: synthesis, biological studies and tubulin inhibition properties” (Eur J Med Chem, 2015).
Activity calls are given as the source filed them. No cut-off for these calls is given here.

Key:
A549 = experiment: Cytotoxicity against human A549 cells after 48 hrs by MTT assay; assay type: functional, cell-based; conditions: A549, 48 h
MCF7 = experiment: Cytotoxicity against human MCF7 cells after 48 hrs by MTT assay; assay type: functional, cell-based; conditions: MCF7, 48 h
HepG2 = experiment: Cytotoxicity against human HepG2 cells after 48 hrs by MTT assay; assay type: functional, cell-based; conditions: HepG2, 48 h
HeLa = experiment: Cytotoxicity against human HeLa cells after 48 hrs by MTT assay; assay type: functional, cell-based
DU-145 [1] = experiment: Cytotoxicity against human DU145 cells after 48 hrs by MTT assay; assay type: functional, cell-based; conditions: DU-145, 48 h
DU-145 [2] = experiment: Cell cycle arrest in human DU145 cells assessed as accumulation at G2/M phase at 2 uM after 48 hrs by propidium iodide staining-based flow cytometric analysis (reference value: 15%); assay type: functional
DU-145 [3] = experiment: Cell cycle arrest in human DU145 cells assessed as accumulation at sub-G1 phase at 2 uM after 48 hrs by propidium iodide staining-based flow cytometric analysis (reference value: 0.17%); assay type: functional
Tubulin (Homo sapiens) [4] = target: T1, Tubulin (Homo sapiens) (UniProt P68371+Q9H4B7+P0DPH7+P68366+Q13509+Q71U36+P04350+Q3ZCM7+P07437+P68363+Q9BQE3+Q6PEY2+Q13885+Q9BVA1+Q9BUF5); experiment: Inhibition of tubulin polymerization (unknown origin) at 5 uM measured every min for 1 hr by fluorescence-based assay; assay type: protein-complex assay; design: scale not given: the % may be the effect or the level left
DU-145 [5] = experiment: Cytotoxicity against human DU145 cells assessed as inhibition of colony formation at 5 uM after 3 days by microscopy; assay type: functional, cell-based
DU-145 [6] = experiment: Cell cycle arrest in human DU145 cells assessed as accumulation at S phase at 2 uM after 48 hrs by propidium iodide staining-based flow cytometric analysis (reference value: 5.88%); assay type: functional
DU-145 [7] = experiment: Cell cycle arrest in human DU145 cells assessed as accumulation at G0/G1 phase at 2 uM after 48 hrs by propidium iodide staining-based flow cytometric analysis (reference value: 78.96%); assay type: functional
Tubulin (Homo sapiens) [8] = target: T1, Tubulin (Homo sapiens); experiment: Inhibition of tubulin polymerization in human DU145 cells assessed as reduction of Akt phosphorylation at Ser473 at 2 to 5 uM after 48 hrs by Western blotting analysis; assay type: cell-based; conditions: DU-145
DU-145 [9] = experiment: Cytotoxicity against human DU145 cells assessed as inhibition of colony formation at 2.5 uM after 3 days by microscopy; assay type: functional, cell-based
DU-145 [10] = experiment: Induction of apoptosis in human DU145 cells assessed as nuclear fragmentation at 2 uM after 24 hrs by Hoechst 33342 staining based confocal microscopy; assay type: functional, cell-based

Row | SMILES | IC50 (A549) [µM] | IC50 (MCF7) [µM] | IC50 (HepG2) [µM] | IC50 (HeLa) [µM] | IC50 (DU-145 [1]) [µM] | Activity (DU-145 [2]) [%] | Activity (DU-145 [3]) [%] | Activity (Tubulin (Homo sapiens) [4]) [%] | inhibition (DU-145 [5]) | Activity (DU-145 [6]) [%] | Activity (DU-145 [7]) [%] | Activity (Tubulin (Homo sapiens) [8]) | inhibition (DU-145 [9]) | Activity (DU-145 [10])
1 | COc1cccc(/C(=C\c2cc(OC)c(OC)c(OC)c2)C(=O)O[C@H]2c3cc4c(cc3[C@@H](c3cc(OC)c(OC)c(OC)c3)[C@H]3C(=O)OC[C@@H]32)OCO4)c1 | 24.9 | 20.1 | 27.3 | 14.1 | 18.4 |  |  |  |  |  |  |  |  | 
2 | COc1ccc(/C(=C\c2ccc(OC)c(OC)c2)C(=O)O[C@H]2c3cc4c(cc3[C@@H](c3cc(OC)c(OC)c(OC)c3)[C@H]3C(=O)OC[C@@H]32)OCO4)cc1 | 18.2 | 17.4 | 51.2 | 15.5 | 8.32 |  |  |  |  |  |  |  |  | 
3 | COc1cccc2c1C(=O)c1c(O)c3c(c(O)c1C2=O)C[C@@](O)(C(=O)CO)C[C@@H]3O[C@H]1C[C@H](N)[C@H](O)[C@H](C)O1 [DOXORUBICIN] |  |  | 3.82 | 0.9 | 4.06 |  |  |  |  |  |  |  |  | 
4 | COc1cc([C@@H]2c3cc4c(cc3[C@H](OC(=O)c3cccc(OC)c3OC)[C@H]3COC(=O)[C@H]23)OCO4)cc(OC)c1OC | 24.3 | 21 | 48.6 | 13.2 | 50.4 |  |  |  |  |  |  |  |  | 
5 | COc1ccc(/C(=C\c2ccc(OC(C)=O)c(OC)c2)C(=O)O[C@H]2c3cc4c(cc3[C@@H](c3cc(OC)c(OC)c(OC)c3)[C@H]3C(=O)OC[C@@H]32)OCO4)cc1OC | 0.91 | 1.83 | 10.9 | 2.3 | 1.06 | 12.63 | 38.88 | 51.2 | Active | 5.69 | 42.8 | Dose-dependent effect |  | 
6 | COc1ccc(/C(=C\c2ccc(OC)c(OCc3ccccc3)c2)C(=O)O[C@H]2c3cc4c(cc3[C@@H](c3cc(OC)c(OC)c(OC)c3)[C@H]3C(=O)OC[C@@H]32)OCO4)cc1OC | 17.5 | 17.6 | 22.9 | 14.3 | 33 |  |  |  |  |  |  |  |  | 
7 | COc1ccc(/C=C(/C(=O)O[C@H]2c3cc4c(cc3[C@@H](c3cc(OC)c(OC)c(OC)c3)[C@H]3C(=O)OC[C@@H]32)OCO4)c2ccc(OC)c(OC)c2)cc1OC | 0.71 | 1.74 | 5.13 | 2.02 | 1.4 | 2.94 | 73 | 46.8 | Active | 1.68 | 22.39 | Dose-dependent effect |  | 
8 | COc1ccc(C(=O)O[C@H]2c3cc4c(cc3[C@@H](c3cc(OC)c(OC)c(OC)c3)[C@H]3C(=O)OC[C@@H]32)OCO4)c([N+](=O)[O-])c1 | 25.8 | 15.3 | 26.5 | 17.6 | 14.4 |  |  |  |  |  |  |  |  | 
9 | COc1ccc(/C(=C\c2cc(OC)c(OC)c(OC)c2)C(=O)O[C@H]2c3cc4c(cc3[C@@H](c3cc(OC)c(OC)c(OC)c3)[C@H]3C(=O)OC[C@@H]32)OCO4)cc1OC | 10.4 | 22.9 | 23.7 | 11.8 | 37.8 |  |  |  |  |  |  |  |  | 
10 | COc1cc([C@@H]2c3cc4c(cc3[C@H](OC(=O)c3ccc([N+](=O)[O-])cc3)[C@H]3COC(=O)[C@H]23)OCO4)cc(OC)c1OC | 0.74 | 1.56 | 8.83 | 2.06 | 1.1 | 13.23 | 40.72 | 64 | Active | 4.24 | 41.81 | Dose-dependent effect |  | 
11 | COc1ccc(/C(=C\c2ccc(OCc3ccccc3)c(OC)c2)C(=O)O[C@H]2c3cc4c(cc3[C@@H](c3cc(OC)c(OC)c(OC)c3)[C@H]3C(=O)OC[C@@H]32)OCO4)cc1OC | 24.9 | 20.3 | 28 | 15.9 | 13.4 |  |  |  |  |  |  |  |  | 
12 | COc1cc([C@@H]2c3cc4c(cc3[C@H](OC(=O)c3ccccc3Cl)[C@H]3COC(=O)[C@H]23)OCO4)cc(OC)c1OC | 34.5 | 19.5 | 24.4 | 17.1 | 11.2 |  |  |  |  |  |  |  |  | 
13 | COc1cc([C@@H]2c3cc4c(cc3[C@H](O)[C@H]3COC(=O)[C@H]23)OCO4)cc(OC)c1OC [PODOFILOX] |  |  |  |  | > 100 |  |  | 66.6 |  |  |  |  |  | 
14 | COc1cc([C@@H]2c3cc4c(cc3[C@H](OC(=O)C#Cc3ccccc3)[C@H]3COC(=O)[C@H]23)OCO4)cc(OC)c1OC | 1.81 | 1.23 | 1.08 | 1.12 | 0.79 |  |  | 53.8 | Active |  |  |  | Active | Active
15 | COc1cc([C@@H]2c3cc4c(cc3[C@H](OC(=O)c3cc([N+](=O)[O-])ccc3N)[C@H]3COC(=O)[C@H]23)OCO4)cc(OC)c1OC | 22.2 | 19.7 | 27.3 | 13.7 | 11.2 |  |  |  |  |  |  |  |  | 
16 | CC#CC(=O)O[C@H]1c2cc3c(cc2[C@@H](c2cc(OC)c(OC)c(OC)c2)[C@H]2C(=O)OC[C@@H]21)OCO3 | 1.03 | 1.35 | 1.47 | 1 | 1.71 |  |  | 62.1 | Active |  |  |  | Active | Active
17 | COc1ccc(/C(=C\c2cc(OC)c(OC)c(OC)c2)C(=O)O[C@H]2c3cc4c(cc3[C@@H](c3cc(OC)c(OC)c(OC)c3)[C@H]3C(=O)OC[C@@H]32)OCO4)cc1 | 13 | 23.3 | 23.7 | 15.9 | 38.1 |  |  |  |  |  |  |  |  | 
18 | COc1ccc(/C=C\c2cc(OC)c(OC)c(OC)c2)cc1O |  |  |  |  |  |  |  | 69.4 |  |  |  |  |  | 
